Data on 19 compounds can be found in patent US11098102B2, “Insulin conjugates” (SANOFI, priority 2018, dated 2021).

Marks after values point to notes of the source that are not given here.

Data set [1] has as its target T1, immobilized human serum albumin (Homo sapiens, UniProt P02768).
T1 construct: purchased Chiralpak (Chiraltech) 34712
The data set is described as follows: Albumin binding: affinity chromatography on columns with immobilized human serum albumin (net retention time). Conditions: isolated binders; HSA column 25° C., PBS pH 7.4/isopropanol gradient. As for the experimental part:
In order to identify suitable binder molecules, which when bound to a peptide, such as an insulin, are able to improve the half-life in plasma and to prolong the profile of action, a system was established based on affinity chromatography with serum albumin columns, i.e. columns with immobilized serum albumin.
The net retention time of the binders (samples) was calculated according to the following formula: Net retention time=RetTimeSample−RetTimet0 marker
• Instrument: Waters Alliance 2795/Waters PDA 2996 or Waters H-Class UPLC equipped with a Waters Acquity photodiode-array detector • Software: Waters Empower 3 • Column: […]® HSA 50×4 mm; 5 μm Particle size • Chiraltech Order Numbers: HSA: 34712 • Eluent A: Phosphate Buffer saline (PBS) at pH=7.4 • Gibco PBS pH7.4 (10×) Phosphate Buffered Saline 500 ml; • Order Number: 70011-036 (500 ml) • Eluent B: Isopropanol • Fisher Order Number: A461-1 (10 • Gradient:
• Column temperature: 25° C. • Flow rate: 1.0 ml/min • Detection: λ=220 nm • Injection volume: 20 μL • Sample Conc.: 1 mg/ml insulin solution in PBS for insulin samples • 5 μL of 10 mM DMSO stock solution (DMSO evaporated and re-dissolved in 200 μL i-propanol/water 1:1 v/v) for isolated binder samples (250 μM, 0.2 mg/ml at 800 Da MolWeight) • t0 marker Sodium Nitrate (NaNO3) solution in water, 0.05 mg/ml • Diluted from aqueous 1 mg/ml stock solution (Fluka Order Number: 74246-100ML) • Reported Value Net retention time of sample: RetTime Sample−RetTime t0 marker
Affinity chromatography was carried out i) for insulin conjugates according to Examples 3.3 and 3.4 on a Waters Alliance Separation Module 2695 equipped with a Waters photodiode-array detector 2996 or Waters H-Class UPLC equipped with a Waters Acquity photodiode-array detector and ii) for isolated binders according to Example 2.11 on a Waters Alliance Separation Module 2795 equipped with a Waters photodiode-array detector 2996 or Waters H-Class UPLC equipped with a Waters Acquity photodiode-array detector.
Columns with immobilized human serum albumin (50×4 mm; 5 μm particle size) were purchased from Chiralpak and used for separations.
The columns with immobilized serum albumin were kept at 25° C. during the LC run, UV detection was carried out at 220 nm and injection volume was 20 μL.
The net retention time of the samples was reported according to Net retention time=RetTime Sample−RetTime t0 marker

In data set [2] the target is T2, insulin receptor isoform B (IR-B) (Homo sapiens, UniProt P06213). The experiment in a line: Insulin receptor autophosphorylation assay (In-Cell Western, CHO cells, Example 8B). In kind it is cell-based. Conditions: relative to human insulin. Also on record: expressed in transfected cells; host or cells: CHO cells.
T2 sequence (P06213 28-758 limits assumed): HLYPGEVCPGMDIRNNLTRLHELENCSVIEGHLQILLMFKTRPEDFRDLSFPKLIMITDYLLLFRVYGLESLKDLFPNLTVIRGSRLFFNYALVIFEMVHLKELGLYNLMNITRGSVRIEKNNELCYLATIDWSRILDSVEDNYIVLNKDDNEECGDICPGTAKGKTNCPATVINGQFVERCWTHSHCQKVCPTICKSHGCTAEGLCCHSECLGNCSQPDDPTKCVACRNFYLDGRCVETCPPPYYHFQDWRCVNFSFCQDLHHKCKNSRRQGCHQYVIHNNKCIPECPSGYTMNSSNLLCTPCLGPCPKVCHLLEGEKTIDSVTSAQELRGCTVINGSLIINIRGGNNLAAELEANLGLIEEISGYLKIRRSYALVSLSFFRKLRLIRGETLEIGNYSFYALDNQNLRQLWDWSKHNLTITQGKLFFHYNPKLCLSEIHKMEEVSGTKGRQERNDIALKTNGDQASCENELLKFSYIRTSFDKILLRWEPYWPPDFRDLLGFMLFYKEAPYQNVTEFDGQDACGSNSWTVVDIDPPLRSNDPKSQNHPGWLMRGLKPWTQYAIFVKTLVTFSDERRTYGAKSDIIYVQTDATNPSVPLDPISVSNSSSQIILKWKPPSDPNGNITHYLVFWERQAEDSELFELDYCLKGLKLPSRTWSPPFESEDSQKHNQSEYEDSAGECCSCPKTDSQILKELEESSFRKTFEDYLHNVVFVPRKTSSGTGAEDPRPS
T2 sequence (P06213 763-1382 limits assumed): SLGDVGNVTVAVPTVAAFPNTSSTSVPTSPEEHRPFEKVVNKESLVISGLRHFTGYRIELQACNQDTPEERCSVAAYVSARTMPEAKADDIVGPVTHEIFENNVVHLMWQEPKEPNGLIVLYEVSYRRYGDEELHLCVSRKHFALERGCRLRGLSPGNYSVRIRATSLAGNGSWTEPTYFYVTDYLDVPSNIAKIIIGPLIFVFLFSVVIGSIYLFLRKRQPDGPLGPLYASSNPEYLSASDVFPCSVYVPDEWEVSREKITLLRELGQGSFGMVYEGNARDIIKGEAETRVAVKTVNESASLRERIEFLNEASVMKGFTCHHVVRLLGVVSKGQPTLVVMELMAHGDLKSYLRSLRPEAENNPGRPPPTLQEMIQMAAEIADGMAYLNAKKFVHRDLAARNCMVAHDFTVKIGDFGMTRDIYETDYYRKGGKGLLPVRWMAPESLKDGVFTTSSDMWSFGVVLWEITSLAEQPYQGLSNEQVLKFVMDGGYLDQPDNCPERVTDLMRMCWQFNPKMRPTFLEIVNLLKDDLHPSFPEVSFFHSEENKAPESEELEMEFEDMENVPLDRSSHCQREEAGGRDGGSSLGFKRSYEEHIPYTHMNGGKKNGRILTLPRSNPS
The target of data set [3] is T2, insulin receptor isoform B (IR-B). The data set is described as follows: Insulin receptor binding affinity assay of insulin analogs (Example 8A, SPA competition binding). To be noted: relative to human insulin; a value of 0 means below the detection limit. Also on record: expressed in transfected cells; host or cells: CHO cells overexpressing the IR; isolated plasma membranes. As to the method:
Methods for determining the binding affinity of an insulin analog to an insulin receptor are well known in the art. […] The insulin receptor can be present in a membrane of a cell, e.g. of CHO (Chinese Hamster Ovary) cell, which overexpresses a recombinant insulin receptor. In an embodiment, the insulin receptor binding affinity is determined as described in the Examples section.
Insulin receptor binding affinity for the analogs listed in Table 4 was determined as described in Hartmann et al. (Effect of the long-acting insulin analogs glargine and degludec on cardiomyocyte cell signaling and function. Cardiovasc Diabetol. 2016; 15:96). Isolation of insulin receptor embedded plasma membranes (M-IR) and competition binding experiments were performed as previously described (Sommerfeld et al., PLoS One. 2010; 5 (3): e9540). Briefly, CHO-cells overexpressing the IR were collected and re-suspended in ice-cold 2.25 STM buffer (2.25 M sucrose, 5 mM Tris-HCl pH 7.4, 5 mM MgCl2, complete protease inhibitor) and disrupted using a Dounce homogenizer followed by sonication. The homogenate was overlaid with 0.8 STM buffer (0.8 M sucrose, 5 mM Tris-HCl pH 7.4, 5 mM MgCl2, complete protease inhibitor) and ultra-centrifuged for 90 min at 100,000 g. Plasma membranes at the interface were collected and washed twice with phosphate buffered saline (PBS). The final pellet was re-suspended in dilution buffer (50 mM Tris-HCl pH 7.4, 5 mM MgCl2, complete protease inhibitor) and again homogenized with a Dounce homogenizer. Competition binding experiments were performed in a binding buffer (50 mM Tris-HCl, 150 mM NaCl, 0.1% BSA, complete protease inhibitor, adjusted to pH 7.8) in 96-well microplates. In each well 2 μg isolated membrane was incubated with 0.25 mg wheat germ agglutinin polyvinyltoluene polyethylenimine scintillation proximity assay (SPA) beads. […] The radioactivity was measured at equilibrium in a microplate scintillation counter (Wallac Microbeta, Freiburg, Germany).”

Data set [4] has as its target Insulin degrading enzyme, IDE (Homo sapiens, UniProt P14735). The data set is described as follows: In vitro proteolytic stability against insulin degrading enzyme (Example 9). The class given is in vitro ADME. Conditions: 37° C., 2 μM.
Description: The stability determination was done using appropriate time points (for SIF and SGF 15, 30, 60, 120 and 240 minutes; for proteases 15, 30, 60 and 120 minutes). The incubation was done at 37° C. and the % of remaining parent compound was calculated in reference to a TO time point.
For the determination of the parent compound an appropriate bioanalytical LC-MS/MS or LC-HRMS method was used, using the supernatant, after protein precipitation with ethanol (1 eq. v/v) and a centrifugation step.
Compounds were dissolved in diluted hydrochloric acid at a final concentration of 40 μM. The compound concentration in the assay was 2 μM. A 1:20 dilution of the working solution was done into the protease buffer and samples are then incubated at 37° C., under stirring. At the appropriate time point and aliquot was taken, the reaction was quenched ethanol (1 eq. v/v), than centrifuged. The supernatant was analyzed.

T1 sequence (P02768 25-609): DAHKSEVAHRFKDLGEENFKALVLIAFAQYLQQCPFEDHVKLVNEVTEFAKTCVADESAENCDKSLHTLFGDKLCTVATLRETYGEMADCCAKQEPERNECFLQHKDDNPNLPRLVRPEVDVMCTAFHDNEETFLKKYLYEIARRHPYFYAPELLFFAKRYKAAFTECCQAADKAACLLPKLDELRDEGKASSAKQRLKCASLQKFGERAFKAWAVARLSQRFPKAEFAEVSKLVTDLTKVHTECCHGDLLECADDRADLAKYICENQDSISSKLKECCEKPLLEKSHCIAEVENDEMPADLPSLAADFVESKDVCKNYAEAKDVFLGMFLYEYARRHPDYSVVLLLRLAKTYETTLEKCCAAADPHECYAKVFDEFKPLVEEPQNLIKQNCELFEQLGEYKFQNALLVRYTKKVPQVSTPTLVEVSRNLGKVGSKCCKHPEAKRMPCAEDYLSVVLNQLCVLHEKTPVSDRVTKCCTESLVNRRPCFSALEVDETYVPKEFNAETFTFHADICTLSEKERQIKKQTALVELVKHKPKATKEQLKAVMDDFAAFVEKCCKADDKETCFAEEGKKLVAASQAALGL

With `O=C(O)CCCCCCCCCCCOc1ccc(CCc2ccc(S(=O)(=O)Nc3ncc(C(=O)NCCOCCOCC(=O)NCCOCCOCC(=O)O)cn3)cc2)cc1` [Binder 3], the “NRT [min] (net retention time on columns with immobilized human serum albumin)” value (shortened to “NRT [min]”) in data set [1] worked out at 17.51 min. For the same compound, the autophosphorylation activity in data set [2] was 0.34. In addition, the Insulin-receptor binding affinity in data set [3] was 0.24.
`O=C(O)CCCCCCCCCCCCCCCCCc1ccc(S(=O)(=O)Nc2ncc(C(=O)NCCOCCOCC(=O)NCCOCCOCC(=O)O)cn2)cc1` [Binder 4]: the “NRT [min]” value in data set [1] came out at 15.75 min. Moreover, in data set [2], the autophosphorylation activity is given as 0.4. Moreover, the Insulin-receptor binding affinity in data set [3] was found to be 0.57.
Consider `O=C(O)CCCCCCCCCc1ccc(CCOc2ccc(S(=O)(=O)Nc3ncc(C(=O)NCCOCCOCC(=O)NCCOCCOCC(=O)O)cn3)cc2)cc1` [Binder 10], for which the “NRT [min]” value in data set [1] is listed as 15.65 min. In data set [2], this compound returned an autophosphorylation activity of 0.31. The Insulin-receptor binding affinity in data set [3] was 0.37.
Consider `O=C(O)CCCCCCCCCCCCCc1ccc(Oc2ccc(S(=O)(=O)Nc3ncc(C(=O)NCCOCCOCC(=O)NCCOCCOCC(=O)O)cn3)cc2)cc1` [Binder 11], for which the “Percent remaining insulin analog, Insulin degrading enzyme, IDE (30 minutes)” value (shortened to “Percent remaining insulin analog”) in data set [4] worked out at 12%. Moreover, in data set [1], the “NRT [min]” value worked out at 14.52 min. The compound further displayed an autophosphorylation activity in data set [2] of 0.06. This compound also had an Insulin-receptor binding affinity in data set [3] of 0.01.
For the compound `O=C(O)CCCCCCCCCCCCCCc1cc(Oc2ccc(S(=O)(=O)Nc3ncc(C(=O)NCCOCCOCC(=O)NCCOCCOCC(=O)O)cn3)cc2)ccc1F` [Binder 13], in data set [1], the “NRT [min]” value is recorded as 15.29 min. Moreover, the autophosphorylation activity in data set [2] is on record as 0.1. In data set [3], this compound registered an Insulin-receptor binding affinity of 0.11.
In the case of `O=C(O)CCCCCCCCCCCOc1ccc(S(=O)(=O)Nc2ncc(C(=O)NCCOCCOCC(=O)NCCOCCOCC(=O)O)cn2)cc1` [Binder 16], in data set [4], the “Percent remaining insulin analog” value is listed as 88%. The “NRT [min]” value in data set [1] is 11.88 min. In data set [2], this compound returned an autophosphorylation activity of 0.29. The compound also had an Insulin-receptor binding affinity in data set [3] of 0.36.
In the case of `O=C(O)CCCCCCCCCCCOc1ccc(S(=O)(=O)Nc2ccc(C(=O)NCCOCCOCC(=O)NCCOCCOCC(=O)O)cn2)cc1` [Binder 18], in data set [1], the “NRT [min]” value is 12.37 min. Also, the autophosphorylation activity in data set [2] is recorded as 0.18. This compound showed an Insulin-receptor binding affinity in data set [3] of 0.23.
Regarding `O=C(O)CCCCCCCCCCCCCc1ccc(S(=O)(=O)Nc2ccc(C(=O)NCCOCCOCC(=O)NCCOCCOCC(=O)O)cn2)cc1` [Binder 20], the “NRT [min]” value in data set [1] is on record as 14.8 min. This compound came in with an autophosphorylation activity in data set [2] of 0.28. The same compound came in with an Insulin-receptor binding affinity in data set [3] of 0.4.
As to `O=C(O)CCCCCCCCCCCCCCCc1cc(Oc2ccc(S(=O)(=O)Nc3ccc(C(=O)NCCOCCOCC(=O)NCCOCCOCC(=O)O)cn3)cc2)ccc1F` [Binder 23], the “Percent remaining insulin analog” value in data set [4] was found to be 80%. The “NRT [min]” value in data set [1] is reported as 15.61 min. Also, the autophosphorylation activity in data set [2] was found to be 0.37. In data set [3], this compound came in with an Insulin-receptor binding affinity of 0.56.
Consider `O=C(O)CCCCCCCCCCCOc1ccc(CCc2ccc(S(=O)(=O)Nc3ccc(C(=O)NCCOCCOCC(=O)NCCOCCOCC(=O)O)cn3)cc2)cc1` [Binder 25], for which the “NRT [min]” value in data set [1] is reported as 17.48 min. The autophosphorylation activity in data set [2] is 0.03. In data set [3], the Insulin-receptor binding affinity is listed as 0.02.
Regarding `O=C(O)CCCCCCCCCc1ccc(CCOc2ccc(S(=O)(=O)Nc3ccc(C(=O)NCCOCCOCC(=O)NCCOCCOCC(=O)O)cn3)cc2)cc1` [Binder 26], in data set [1], the “NRT [min]” value was 14.98 min. Moreover, the autophosphorylation activity in data set [2] came to 0.07. The compound also gave an Insulin-receptor binding affinity in data set [3] of 0.01.
On the same counts, the results for `O=C(O)CCCCCCCCCCCc1cc(Oc2ccc(S(=O)(=O)Nc3ncc(C(=O)NCCOCCOCC(=O)NCCOCCOCC(=O)O)cn3)cc2)ccc1F` [Binder 28] are 15.39 min, 0.11 and 0.12.
For `O=C(O)CCCCCCCCCCCCCc1ccc(S(=O)(=O)Nc2ccc(C(=O)NCCOCCOCC(=O)NCCOCCOCC(=O)O)cn2)cc1` [Binder 30], the “NRT [min]” value in data set [1] was found to be 14.36 min. Besides, the autophosphorylation activity in data set [2] is 0.01. Further, the Insulin-receptor binding affinity in data set [3] is recorded as 0**.
As for `O=C(O)CCCCCCCCCCCCCCCCCc1ccc(S(=O)(=O)Nc2ccc(C(=O)NCCOCCOCC(=O)NCCOCCOCC(=O)O)cn2)cc1` [Binder 31], the “NRT [min]” value in data set [1] is given as 15.77 min. In data set [2], this compound showed an autophosphorylation activity of 0.13. For the same compound, in data set [3], the Insulin-receptor binding affinity came to 0.12.
Turning to `O=C(O)CCCCCCCCCCCCCOc1ccc(S(=O)(=O)Nc2ccc(C(=O)NCCOCCOCC(=O)NCCOCCOCC(=O)O)cn2)cc1` [Binder 32], the “NRT [min]” value in data set [1] is on record as 13.9 min. This compound also displayed an autophosphorylation activity in data set [2] of 0.04. The compound also had an Insulin-receptor binding affinity in data set [3] of 0.
`O=C(O)CCCCCCCCCCCCCOc1ccc(S(=O)(=O)Nc2ncc(C(=O)NCCOCCOCC(=O)NCCOCCOCC(=O)O)cn2)cc1` [Binder 33]: the “NRT [min]” value in data set [1] is recorded as 13.57 min. Besides, in data set [2], the autophosphorylation activity is listed as 0.02. The same compound had an Insulin-receptor binding affinity in data set [3] of 0.01.
As for `O=C(O)CCCCCCCCCCCCCCCOc1ccc(S(=O)(=O)Nc2ccc(C(=O)NCCOCCOCC(=O)NCCOCCOCC(=O)O)cn2)c(Cl)c1Cl` [Binder 36], the “NRT [min]” value in data set [1] is reported as 13.89 min. The compound further returned an autophosphorylation activity in data set [2] of 0.23. Besides, the Insulin-receptor binding affinity in data set [3] amounted to 0.17.
Consider `O=C(O)CCCCCCCCCCCCCCCOc1ccc(S(=O)(=O)Nc2ccc(C(=O)NCCOCCOCC(=O)NCCOCCOCC(=O)O)cn2)cc1F` [Binder 39], for which, in data set [1], the “NRT [min]” value turned out to be 13.68 min. The compound also had an autophosphorylation activity in data set [2] of 0.02. Further, the Insulin-receptor binding affinity in data set [3] turned out to be 0.
For the compound `O=C(O)CCCCCCCCCCCc1cccc(S(=O)(=O)Nc2ccc(C(=O)NCCOCCOCC(=O)NCCOCCOCC(=O)O)cn2)c1` [Binder 40], in data set [1], the “NRT [min]” value came to 11.44 min. In data set [2], the autophosphorylation activity is 0.01. Also, the Insulin-receptor binding affinity in data set [3] amounted to 0.01.
